The record followed here is patent US10975068B2, “6-aminopyridin-3-yl thiazoles as modulators of RORγT” (Janssen Pharmaceutica NV, priority 2016, dated 2021).

One assay concerns the target full-length human RORγt (Homo sapiens (Human), UniProt P51449). The assay is described as follows: RORγt (full-length human) reporter assay, Conditions B or C. It is filed as cell-based. Particulars: for RORγt (FL) Reporter Assay B or C, % inhibition (value marked *): marked *: footnote not given; for IC50: read-out: RORγt (FL) Reporter Assay B or C, IC50; for inhibition at 3 µM: at 3 μM compound concentration, read-out: RORγt (FL) Reporter Assay B or C, % inhibition. The essentials:
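Readout is dual luciferase: firefly (GAL4-driven) normalized to DMSO-only and saturating-reference controls, then to CMV-Renilla. Full-length human RORγt fused to GAL4-DBD was transiently expressed in HEK293T; compound exposure ran overnight (16-20 h) starting 4-6 h after transfection, final FBS 1.3%, DMSO 0.1%.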

Assay [1] has as its target human RORγt ligand binding domain (RORγt LBD) (Homo sapiens (Human), UniProt P51449). As to the kind of experiment: RORγt ThermoFluor® assay (thermal shift binding). Particulars: read-out: ThermoFluor® Assay, Kd. The procedure, abridged:
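Binding was inferred from thermal stabilisation (ΔTm) of the E. coli-expressed RORγt LBD (0.065 mg/mL), monitored by 1,8-ANS (60 μM) emission at 500 nm during a 1 °C/min ramp. Buffer was Hepes 100 mM pH 7.0 with NaCl, GSH and Tween-20.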

Where two headings read alike, the source gives them in different places.

Sequence of human RORγt ligand binding domain (RORγt LBD) (P51449 other isoform, or with tags, fused parts or gaps): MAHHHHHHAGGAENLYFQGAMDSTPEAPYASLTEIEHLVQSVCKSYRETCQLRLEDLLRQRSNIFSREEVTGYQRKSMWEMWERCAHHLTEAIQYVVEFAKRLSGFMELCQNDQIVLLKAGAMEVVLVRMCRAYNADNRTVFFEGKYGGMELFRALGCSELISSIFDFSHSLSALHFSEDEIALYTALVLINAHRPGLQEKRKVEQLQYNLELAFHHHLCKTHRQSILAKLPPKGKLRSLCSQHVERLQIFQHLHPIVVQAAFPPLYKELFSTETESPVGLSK
Sequence of full-length human RORγt (P51449 other isoform, or with tags, fused parts or gaps): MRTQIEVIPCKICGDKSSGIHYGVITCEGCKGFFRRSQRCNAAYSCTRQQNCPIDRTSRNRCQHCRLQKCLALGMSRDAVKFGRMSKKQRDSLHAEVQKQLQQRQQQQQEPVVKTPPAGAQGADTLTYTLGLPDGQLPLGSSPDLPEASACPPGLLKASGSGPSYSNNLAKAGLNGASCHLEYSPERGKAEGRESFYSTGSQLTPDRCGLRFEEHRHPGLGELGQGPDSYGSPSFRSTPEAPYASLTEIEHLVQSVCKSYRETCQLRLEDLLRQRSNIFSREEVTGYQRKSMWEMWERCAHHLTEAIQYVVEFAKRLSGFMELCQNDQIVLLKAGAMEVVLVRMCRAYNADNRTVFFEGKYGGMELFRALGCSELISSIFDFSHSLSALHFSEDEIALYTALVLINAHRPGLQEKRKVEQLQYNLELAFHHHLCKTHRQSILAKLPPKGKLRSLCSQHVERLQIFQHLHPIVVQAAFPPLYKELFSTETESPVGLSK

Regarding `C[C@H]1CCCN1C(=O)c1nc(C(=O)NCC(C)(C)O)sc1-c1cnc(N[C@H](C)C(F)(F)F)cc1C(F)(F)F` [Example 54, N-(2-Hydroxy-2-methylpropyl)-4-((S)-2-methylpyrrolidine-1-carbonyl)-5-(4-(trifluoromethyl)-6-(((R)-1,1,1-trifluoropropan-2-yl)amino)pyridin-3-yl)thiazole-2-carboxamide], on full-length human RORγt (Conditions B or C), the “RORγt (FL) Reporter Assay B or C, % inhibition (value marked *)” value (“RORγt … % inhibition (value marked *)” for short) is reported as 109* % and the half-maximal inhibitory concentration (IC50) worked out at 46 nM. Moreover, the Kd in assay [1] worked out at 12 nM.
For the compound `CC(Nc1cc(C(F)(F)F)c(-c2sc(C(=O)NCC(C)(C)O)nc2C(=O)N2CC(F)(F)C[C@@H]2C)cn1)C1CCC1` (stereo partly drawn) [Example 161, 5-(6-((1-Cyclobutylethyl)amino)-4-(trifluoromethyl)pyridine-3-yl)-4-((S)-4,4-difluoro-2-methylpyrrolidine-1-carbonyl)-N-(2-hydroxy-2-methylpropyl)thiazole-2-carboxamide], at full-length human RORγt (Conditions B or C), the “RORγt … % inhibition (value marked *)” value is listed as 106* % and the IC50 was determined as 20 nM. Moreover, the dissociation constant Kd in assay [1] stood at 0.78 nM.
In the case of `CC[C@@H](Nc1cc(C(F)F)c(-c2sc(C(=O)N[C@H]3C[C@H](O)C3)nc2C(=O)N2CCC[C@@H]2C)cn1)C(F)(F)F` [Example 205, 5-(4-(Difluoromethyl)-6-(((1R)-1-(trifluoromethyl)propyl)amino)-3-pyridyl)-N-((1r,3S)-3-hydroxycyclobutyl)-4-((2S)-2-methylpyrrolidine-1-carbonyl)thiazole-2-carboxamide], at full-length human RORγt (Conditions B or C), the “RORγt … % inhibition (value marked *)” value is 103* % and the IC50 came out at 33 nM. The Kd in assay [1] came to 6.8 nM.
Regarding `C[C@H](NC(=O)c1nc(C(=O)N2CC(F)(F)C[C@@H]2C)c(-c2cnc(N[C@@H](C3CC3)C(F)(F)F)cc2C(F)F)s1)C(C)(C)O` [Example 313, 5-(6-(((S)-1-Cyclopropyl-2,2,2-trifluoroethyl)amino)-4-(difluoromethyl)pyridin-3-yl)-4-((S)-4,4-difluoro-2-methylpyrrolidine-1-carbonyl)-N—((S)-3-hydroxy-3-methylbutan-2-yl)thiazole-2-carboxamide], at full-length human RORγt, the inhibition at 3 µM was determined as 106% and the half-maximal inhibitory concentration (IC50) came to 36 nM. Also, the dissociation constant Kd in assay [1] was 0.74 nM.
In the case of `CC(C)(O)CNC(=O)c1nc(C(=O)N2C3CCC2CC3)c(-c2cnc(NC3CCCC3)cc2C(F)F)s1` [Example 46, 4-((1s,4s)-7-Azabicyclo[2.2.1]heptane-7-carbonyl)-5-(6-(cyclopentylamino)-4-(difluoromethyl)pyridin-3-yl)-N-(2-hydroxy-2-methylpropyl)thiazole-2-carboxamide], at full-length human RORγt (Conditions B or C), the “RORγt … % inhibition (value marked *)” value is reported as 100* % and the IC50 was determined as 29 nM. In assay [1], the dissociation constant (Kd) was found to be 4.2 nM.
On to `C[C@@H](Nc1cc(C(F)(F)F)c(-c2sc(C(=O)NCC(C)(C)O)nc2C(=O)N2CCC[C@@H]2C)cn1)C1CCC1` (relative stereo) [Example 176, 5-(6-(((R*)-1-Cyclobutylethyl)amino)-4-(trifluoromethyl)pyridine-3-yl)-N-(2-hydroxy-2-methylpropyl)-4-((S)-2-methylpyrrolidine-1-carbonyl)thiazole-2-carboxamide], for which, on full-length human RORγt (Conditions B or C, marked ***: footnote not given), the “RORγt (FL) Reporter Assay B or C, % inhibition (value marked ***)” value is 115*** %. The IC50 on full-length human RORγt (Conditions B or C) turned out to be 15 nM. For the same compound, in assay [1], the Kd was found to be 1.3 nM.
Consider `C[C@H]1CCCN1C(=O)c1nc(C(=O)NCC(C)(O)C(F)(F)F)sc1-c1cnc(NC(C)(C)C)cc1C(F)(F)F` (stereo partly drawn) [Example 357, 5-(6-(tert-Butylamino)-4-(trifluoromethyl)pyridin-3-yl)-4-((S)-2-methylpyrrolidine-1-carbonyl)-N-(3,3,3-trifluoro-2-hydroxy-2-methylpropyl)thiazole-2-carboxamide], for which, at full-length human RORγt, the inhibition at 3 µM was 106% and the IC50 came out at 12 nM. Also, in assay [1], the Kd amounted to 1.2 nM.
The corresponding values for `C[C@H]1CCCN1C(=O)c1nc(C(=O)NC2CCOCC2)sc1-c1cnc(NC(C)(C)C)cc1C(F)(F)F` [Example 374, 5-[6-(tert-Butylamino)-4-(trifluoromethyl)-3-pyridyl]-4-[(2S)-2-methylpyrrolidine-1-carbonyl]-N-tetrahydropyran-4-yl-thiazole-2-carboxamide] are 121%, 4.8 nM and 1.6 nM.
In the case of `CC[C@H](Nc1cc(C(F)F)c(-c2sc(C(=O)N[C@@H](C)C(C)(C)O)nc2C(=O)N2CCCC[C@@H]2C)cn1)C(F)(F)F` [Example 247, 5-[4-(Difluoromethyl)-6-[[(1S)-1-(trifluoromethyl)propyl]amino]-3-pyridyl]-N-[(1S)-2-hydroxy-1,2-dimethyl-propyl]-4-[(2S)-2-methylpiperidine-1-carbonyl]thiazole-2-carboxamide], at full-length human RORγt (Conditions B or C), the “RORγt … % inhibition (value marked *)” value is given as 100* % and the IC50 was 23 nM. Also, in assay [1], the equilibrium dissociation constant (Kd) is 0.28 nM.
The corresponding values for `C[C@H]1CC(F)(F)CN1C(=O)c1nc(C(=O)N[C@H]2COC[C@@H]2O)sc1-c1cnc(NC2(C)CCC2)cc1C(F)(F)F` [Example 186] are 98* %, 16 nM and 0.18 nM.
Turning to `C[C@H]1CCCN1C(=O)c1nc(C(=O)NCC(C)(C)O)sc1-c1cnc(NC(C2CC2)C(F)(F)F)cc1C(F)F` (stereo partly drawn) [Example 294], on full-length human RORγt, the inhibition at 3 µM stood at 100% and the IC50 worked out at 13 nM. The Kd in assay [1] came out at 1.3 nM.
Taken in the same sequence, the figures for `C[C@H]1CCCN1C(=O)c1nc(C(N)=O)sc1-c1cnc(NC(C)(C)C)cc1C(F)(F)F` [Example 308, (S)-5-(6-(tert-Butylamino)-4-(trifluoromethyl)pyridin-3-yl)-4-(2-methylpyrrolidine-1-carbonyl)thiazole-2-carboxamide] were 107%, 260 nM and 96 nM.
For `C[C@H]1CC(F)(F)CN1C(=O)c1nc(C(=O)NCC(C)(C)O)sc1-c1cnc(NC(C)(C)C)cc1C(F)F` [Example 143, (S)-5-(6-(tert-Butylamino)-4-(difluoromethyl)pyridin-3-yl)-4-(4,4-difluoro-2-methylpyrrolidine-1-carbonyl)-N-(2-hydroxy-2-methylpropyl)thiazole-2-carboxamide], at full-length human RORγt (Conditions B or C), the “RORγt … % inhibition (value marked *)” value is reported as 114* % and the half-maximal inhibitory concentration (IC50) is 39 nM. In assay [1], the Kd is 2.3 nM.
For `C[C@H]1CCCN1C(=O)c1nc(C(=O)N[C@H](C)C(C)(C)O)sc1-c1cnc(NC(C)(C)C)cc1C(F)F` [Example 269, 5-[6-(tert-Butylamino)-4-(difluoromethyl)-3-pyridyl]-N-[(1R)-2-hydroxy-1,2-dimethyl-propyl]-4-[(2S)-2-methylpyrrolidine-1-carbonyl]thiazole-2-carboxamide], on full-length human RORγt, the inhibition at 3 µM is 101% and the half-inhibitory concentration (IC50) came out at 8.2 nM. Besides, the Kd in assay [1] was found to be 4.9 nM.
Taken in the same sequence, the figures for `C[C@H]1CCCN1C(=O)c1nc(C(=O)N2C[C@@H](O)[C@H](F)C2)sc1-c1cnc(NC(C)(C)C)cc1C(F)(F)F` [Example 372, [5-[6-(tert-Butylamino)-4-(trifluoromethyl)-3-pyridyl]-2-[(3R,4R)-3-fluoro-4-hydroxy-pyrrolidine-1-carbonyl]thiazol-4-yl]-[(2S)-2-methylpyrrolidin-1-yl]methanone] were 125%, 59 nM and 9.2 nM.
Taken in the same sequence, the figures for `C[C@H](Nc1cc(C(F)F)c(-c2sc(C(=O)N[C@H]3CC[C@H](O)C3)nc2C(=O)N2CCC[C@@H]2C)cn1)C(F)(F)F` [Example 288, 5-(4-(Difluoromethyl)-6-(((S)-1,1,1-trifluoropropan-2-yl)amino)pyridin-3-yl)-N-((1S,3S)-3-hydroxycyclopentyl)-4-((S)-2-methylpyrrolidine-1-carbonyl)thiazole-2-carboxamide] were 103%, 29 nM and 4.4 nM.
With `CC(C)(O)CNC(=O)c1nc(C(=O)N2CCC(F)CC2)c(-c2cnc(NC3CCCCC3(F)F)cc2C(F)(F)F)s1` (stereo not drawn) [Example 26, 5-(6-((2,2-Difluorocyclohexyl)amino)-4-(trifluoromethyl)pyridin-3-yl)-4-(4-fluoropiperidine-1-carbonyl)-N-(2-hydroxy-2-methylpropyl)thiazole-2-carboxamide], on full-length human RORγt (Conditions B or C), the 50% inhibitory concentration (IC50) came to 37 nM. Besides, the inhibition at 6 µM on full-length human RORγt (read-out: RORγt (FL) Reporter Assay B or C, % inhibition @ 6 μM, Conditions B or C, @ 6 μM) worked out at 111%. Besides, the equilibrium dissociation constant (Kd) in assay [1] turned out to be 9.5 nM.
`CC[C@H](Nc1cc(C(F)F)c(-c2sc(C(=O)N[C@H]3CCC[C@@H]3O)nc2C(=O)N2CC(F)(F)C[C@@H]2C)cn1)C(F)(F)F` [Example 419, 4-[(2S)-4,4-Difluoro-2-methyl-pyrrolidine-1-carbonyl]-5-[4-(difluoromethyl)-6-[[(1S)-1-(trifluoromethyl)propyl]amino]-3-pyridyl]-N-[(1S,2S)-2-hydroxycyclopentyl]thiazole-2-carboxamide]: at full-length human RORγt, the inhibition at 3 µM is 84% and the IC50 came out at 34 nM. For the same compound, the Kd in assay [1] came to 0.21 nM.
